Results taken from patent US11459315B2, “Modulators of methyl modifying enzymes, compositions and uses thereof” (Constellation Pharmaceuticals, Inc., priority 2017, dated 2022).
Like-named read-outs stand apart in the source and are kept apart here.

How the values were obtained:
[1] = tested on: H3K27me3 mark in HeLa cells (EZH2); test: H3K27me3 Alpha Hela Assay (AlphaLISA); format: cell-based; conditions: HeLa cells, 72 hrs, read-out: EZH2 Cell H3K27me3 Alpha HeLa (EC50 K27me3)
Procedure: H3K27me3 Alpha Hela Assay (AlphaLISA). Ten different doses of each test compound (in a series of 3-fold dilutions) were plated in duplicate 384-well tissue culture treated plates (Catalog #6007680; Perkin Elmer, Waltham, Mass.). Hela cells grown in culture were trypsinized and counted using a Countess® cell counter (Catalog #C10281; Life Technologies, Grand Island, N.Y.). Cell were diluted to 67,000 cells per mL in 10% DMEM (Catalog #10569-010 Life Technologies, Grand Island, N.Y.) and 15 μL (1,000 cells) were plated into each well using the Biotek MicroFlo™ Select Dispenser (BioTek Instruments, Inc. Vermont, USA),) of the 384-well plate. Plates were incubated at 37° C./5% CO2 for 72 hrs. One of the duplicate plates was processed for HeLa assay and the other for viability.
5 μL of Cell-Histone Lysis buffer (1×) (Catalog #AL009F1 Perkin Elmer; Waltham, Mass.) per well was added to the plate processed for AlphaLISA and the plate was incubated at RT for 30 minutes on a plate shaker with low speed (Model #4625-Q Thermo Scientific; Waltham, Mass.). Then, 10 μL per well Histone Extraction buffer (catalog #AL009F2; Perkin Elmer; Waltham, Mass.) was added and the plate further incubated at RT for 20 min on plate shaker with low speed. Next, 10 μL of 5× mix of anti-K27me3 acceptor beads plus Biotinylated anti-Histone H3 (C-ter) Antibody (diluted to 3 nM final) (Catalog #AL118 Perkin Elmer; Waltham, Mass.) was added in each well. Dilution of the acceptor beads and anti-Histone H3 was done in 1× Histone Detection buffer (Catalog #AL009F3 Perkin Elmer; Waltham, Mass.) which was produced by diluting the 10× stock provided. The plate was sealed with an aluminum plate sealer and incubated at 23° C. for 60 min. Next, 10 μL 5× solution of Streptavidin Donor beads were added (Catalog #6760002 Perkin Elmer; Waltham, Mass.) (20 μg/mL final in 1× Histone Detection Buffer), =plate was sealed with Aluminum plate sealer and incubated at 23° C. for 30 min. The plates were then read using an EnVision-Alpha Reader (model #2104 Perkin Elmer; Waltham, Mass.).
Data from both assays was analyzed using Genedata (Basel, Switzerland). Data files were imported to Genedata and assay conditions were specified. A unique Analysis ID was created and the data files analysed to measure dose-dependent inhibition of H3K27me3 mark and cell viability respectively. Readout of DMSO wells were used to normalize the data. Resulting curves were fitted using Smart fit application (Genedata; Basel, Switzerland). The data was checked for quality, validated and integrated in excel format using Stardrop (Optibruim, Cambridge, UK).
EC50 values are reported as follows: “A” indicates an EC50 value of less than 10 nM; “B” indicates an EC50 value of 10 nM to 100 nM; “C” indicates an EC50 value of greater than 100 nM; and “ND” is not determined.

[2] = target: PRC2 containing wt EZH2 (Homo sapiens (Human), UniProt Q15910); test: EZH2 biochemical assay (IC50), 3H-SAM incorporation into biotinylated H3 peptide
PRC2 containing wt EZH2, sequence (Q15910 whole entry): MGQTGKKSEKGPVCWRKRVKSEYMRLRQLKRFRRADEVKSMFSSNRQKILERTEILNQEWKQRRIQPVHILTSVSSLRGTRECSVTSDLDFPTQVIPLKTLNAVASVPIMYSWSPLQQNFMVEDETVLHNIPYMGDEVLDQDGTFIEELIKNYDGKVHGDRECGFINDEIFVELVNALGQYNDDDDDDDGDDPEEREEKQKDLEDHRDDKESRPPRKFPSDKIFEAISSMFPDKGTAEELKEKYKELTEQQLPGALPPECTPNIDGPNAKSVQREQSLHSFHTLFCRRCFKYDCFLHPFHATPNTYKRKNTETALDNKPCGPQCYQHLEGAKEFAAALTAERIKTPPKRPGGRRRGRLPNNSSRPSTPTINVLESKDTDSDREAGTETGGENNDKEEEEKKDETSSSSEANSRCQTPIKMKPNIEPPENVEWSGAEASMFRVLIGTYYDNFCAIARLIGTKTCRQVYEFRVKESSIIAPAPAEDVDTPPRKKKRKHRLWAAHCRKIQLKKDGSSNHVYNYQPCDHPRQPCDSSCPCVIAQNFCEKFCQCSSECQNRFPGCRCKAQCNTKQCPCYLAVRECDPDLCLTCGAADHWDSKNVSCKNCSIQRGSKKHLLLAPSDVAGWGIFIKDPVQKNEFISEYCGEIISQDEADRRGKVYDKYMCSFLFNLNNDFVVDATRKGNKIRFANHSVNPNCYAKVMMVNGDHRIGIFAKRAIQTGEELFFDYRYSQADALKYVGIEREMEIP
PRC2 containing wt EZH2, sequence (O75530 whole entry partner): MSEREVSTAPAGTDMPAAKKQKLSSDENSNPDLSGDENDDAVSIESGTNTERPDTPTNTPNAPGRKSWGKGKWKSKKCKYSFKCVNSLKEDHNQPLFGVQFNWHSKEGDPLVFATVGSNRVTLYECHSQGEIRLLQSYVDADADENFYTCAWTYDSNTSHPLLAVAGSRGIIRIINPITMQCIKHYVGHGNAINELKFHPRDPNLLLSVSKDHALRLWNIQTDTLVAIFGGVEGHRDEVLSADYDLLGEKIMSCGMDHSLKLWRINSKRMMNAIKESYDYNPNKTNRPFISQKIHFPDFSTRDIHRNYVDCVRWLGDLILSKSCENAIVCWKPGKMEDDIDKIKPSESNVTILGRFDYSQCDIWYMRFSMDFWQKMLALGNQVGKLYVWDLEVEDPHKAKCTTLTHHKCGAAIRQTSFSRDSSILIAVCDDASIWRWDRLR
PRC2 containing wt EZH2, sequence (Q15022 whole entry partner): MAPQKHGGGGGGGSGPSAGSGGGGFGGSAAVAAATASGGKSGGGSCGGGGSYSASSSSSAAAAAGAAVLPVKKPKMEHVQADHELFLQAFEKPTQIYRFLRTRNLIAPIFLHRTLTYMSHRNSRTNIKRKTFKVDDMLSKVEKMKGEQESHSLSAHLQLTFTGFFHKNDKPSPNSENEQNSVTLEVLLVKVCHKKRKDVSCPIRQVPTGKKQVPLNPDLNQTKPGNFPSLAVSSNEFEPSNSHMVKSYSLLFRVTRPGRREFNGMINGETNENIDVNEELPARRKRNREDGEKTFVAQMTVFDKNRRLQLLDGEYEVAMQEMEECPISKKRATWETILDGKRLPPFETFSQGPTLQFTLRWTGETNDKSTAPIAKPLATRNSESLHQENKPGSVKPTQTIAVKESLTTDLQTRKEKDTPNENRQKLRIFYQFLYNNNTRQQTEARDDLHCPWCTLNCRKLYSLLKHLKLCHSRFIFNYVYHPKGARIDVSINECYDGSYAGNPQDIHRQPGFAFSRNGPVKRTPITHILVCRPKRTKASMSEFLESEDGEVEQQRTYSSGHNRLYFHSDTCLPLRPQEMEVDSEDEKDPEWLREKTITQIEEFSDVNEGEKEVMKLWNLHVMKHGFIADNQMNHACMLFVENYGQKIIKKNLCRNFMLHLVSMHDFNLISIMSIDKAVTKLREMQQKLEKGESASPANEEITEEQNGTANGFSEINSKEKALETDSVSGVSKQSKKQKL
PRC2 containing wt EZH2, sequence (Q09028 whole entry partner): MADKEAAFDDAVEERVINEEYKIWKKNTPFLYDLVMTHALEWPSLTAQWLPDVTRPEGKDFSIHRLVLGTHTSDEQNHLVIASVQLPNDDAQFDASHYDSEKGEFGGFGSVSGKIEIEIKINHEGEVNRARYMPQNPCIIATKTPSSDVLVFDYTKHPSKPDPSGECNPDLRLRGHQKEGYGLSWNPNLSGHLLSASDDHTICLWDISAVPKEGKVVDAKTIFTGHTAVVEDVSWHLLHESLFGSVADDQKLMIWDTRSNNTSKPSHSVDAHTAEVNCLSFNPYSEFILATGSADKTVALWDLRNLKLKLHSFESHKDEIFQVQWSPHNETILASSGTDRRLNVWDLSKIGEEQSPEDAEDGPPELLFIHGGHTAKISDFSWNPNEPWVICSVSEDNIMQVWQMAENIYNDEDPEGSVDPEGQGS
PRC2 containing wt EZH2, sequence (Q6ZN18 whole entry partner): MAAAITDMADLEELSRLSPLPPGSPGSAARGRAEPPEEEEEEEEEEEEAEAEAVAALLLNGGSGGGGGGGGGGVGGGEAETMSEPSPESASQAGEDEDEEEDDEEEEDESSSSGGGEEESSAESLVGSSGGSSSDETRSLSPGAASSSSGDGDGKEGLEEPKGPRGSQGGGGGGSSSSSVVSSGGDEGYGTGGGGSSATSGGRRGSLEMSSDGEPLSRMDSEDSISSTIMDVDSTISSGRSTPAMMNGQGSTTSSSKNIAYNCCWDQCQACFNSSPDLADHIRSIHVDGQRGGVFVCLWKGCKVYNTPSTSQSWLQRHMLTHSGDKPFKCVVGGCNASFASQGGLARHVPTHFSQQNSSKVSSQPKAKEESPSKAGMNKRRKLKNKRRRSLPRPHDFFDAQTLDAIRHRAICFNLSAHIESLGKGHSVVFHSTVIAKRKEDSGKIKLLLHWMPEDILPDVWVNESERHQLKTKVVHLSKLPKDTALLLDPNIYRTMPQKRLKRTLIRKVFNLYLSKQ
Procedure: EZH2 biochemical assay (IC50): Compound potencies were assessed through incorporation of ^3H-SAM into a biotinylated H3 peptide. Specifically, 30 pM PRC2 containing wt EZH2 (pentameric complex prepared in-house) was pre-incubated with 450 nM SAM, 450 nM ^3H-SAM, 2 μM H3K27me3 activating peptide (H2N-[…](Kme3)[…]-amide) and compounds (as 10 point duplicate dose response titrations in DMSO, final assay 0.8% DMSO (v/v)) for 3-5 h in 50 mM Tris (pH 8.5), 1 mM DTT, 0.07 mM Brij-35, 0.1% BSA, and 0.8% DMSO in a total volume of 12.5 μl. Reaction was initiated with biotinylated H3 substrate peptide (H2N-[…](Kme1)[…]-NTPEGBiot) as a 2 μM stock in 12.5 μl of buffer and allowed to react at room temperature for 18-22 h. Quenching was accomplished by addition of 20 μl of STOP solution (50 mM Tris (pH 8.5), 200 mM EDTA, 2 mM SAH). 35 μl of the quenched solution was transferred to streptavidin coated FlashPlates (PerkinElmer), incubated 1-2 h, washed, and read in a TopCount Reader (PerkinElmer). IC50s were calculated in Genedata Screener using non-linear least square four parameter fits, where the four parameters were IC50, Hill slope, pre-transitional baseline (0% INH), and post-transitional baseline (100% INH).
IC50 values are reported as follows: “A” indicates an IC50 value of less than 0.5 nM; “B” indicates an IC50 value of 0.5 nM to 5 nM; “C” indicates an IC50 value of greater than 5 nM for each enzyme; and “ND” is not determined.

[3] = EZH2 (IC50), 30 pM PRC2 containing wt EZH2; 3-5 h pre-incubation
[4] = read-out: EZH2 (IC50); 30 pM PRC2 containing wt EZH2; 3-5 h pre-incubation
[5] = 30 pM PRC2 containing wt EZH2; 3-5 h pre-incubation; read-out: EZH2 (IC50)

Structure (SMILES): CSc1cc(C)[nH]c(=O)c1CNC(=O)c1c(C)n([C@H](C)C2CCC(O)CC2)c2ncc(Cl)cc12 (single isomer, unassigned) [53 (isomer 1)]
- EC50 ([1]; Homo sapiens, HeLa, 72 h): 10 to 100 nM
- IC50 [2, 3]: < 0.5 nM

Structure (SMILES): CSc1cc(C)[nH]c(=O)c1CNC(=O)c1c(C)n([C@H](C)C2CCC(O)CC2)c2ncc(Cl)cc12 (single isomer, unassigned) [53 (isomer 2)]
- EC50 [1]: < 10 nM
- IC50 [2, 4]: < 0.5 nM

Structure (SMILES): CSc1cc(C)[nH]c(=O)c1CNC(=O)c1c(C)n([C@H](C)C2CCC(OC(F)F)CC2)c2ccccc12 (single isomer, unassigned) [60 (isomer 1)]
- EC50 ([1]; Homo sapiens, HeLa, 72 h): < 10 nM
- IC50 [2, 3]: < 0.5 nM

Structure (SMILES): CSc1cc(C)[nH]c(=O)c1CNC(=O)c1c(C)n([C@H](C)C2CCC(OC(F)F)CC2)c2ccccc12 (single isomer, unassigned) [60 (isomer 2)]
- EC50 [1]: < 10 nM
- IC50 [2, 4]: < 0.5 nM

Structure (SMILES): CSc1cc(C)[nH]c(=O)c1CNC(=O)c1c(C)n([C@H](C)C2CCC(NC3COC3)CC2)c2ncccc12 (single isomer, unassigned) [62 (isomer 1)]
- EC50 [1]: 10 to 100 nM
- IC50 [2, 5]: < 0.5 nM

Structure (SMILES): CSc1cc(C)[nH]c(=O)c1CNC(=O)c1c(C)n([C@H](C)C2CCC(NC3COC3)CC2)c2ncccc12 (single isomer, unassigned) [62 (isomer 2)]
- EC50 ([1]; listed as 62): > 100 nM
- IC50 [2, 5]: 0.5 to 5 nM

Structure (SMILES): CSc1cc(C)[nH]c(=O)c1CNC(=O)c1c(C)n([C@H](C)C2CCN(C3CC(F)C3)CC2)c2ccccc12 (single isomer, unassigned) [64 (isomer 1)]
- EC50 ([1]; Homo sapiens, HeLa, 72 h): 10 to 100 nM
- IC50 [2, 3]: < 0.5 nM

Structure (SMILES): CSc1cc(C)[nH]c(=O)c1CNC(=O)c1c(C)n([C@H](C)C2CCN(C3CC(F)C3)CC2)c2ccccc12 (single isomer, unassigned) [64 (isomer 2)]
- EC50 [1]: 10 to 100 nM
- IC50 [2, 4]: < 0.5 nM

Structure (SMILES): COCCOC1CCC([C@@H](C)n2c(C)c(C(=O)NCc3c(SC)cc(C)[nH]c3=O)c3ccccc32)CC1 (single isomer, unassigned) [67 (isomer 1)]
- EC50 ([1]; Homo sapiens, HeLa, 72 h): 10 to 100 nM
- IC50 [2, 4]: < 0.5 nM

Structure (SMILES): COCCOC1CCC([C@@H](C)n2c(C)c(C(=O)NCc3c(SC)cc(C)[nH]c3=O)c3ccccc32)CC1 (single isomer, unassigned) [67 (isomer 2)]
- EC50 [1]: < 10 nM
- IC50 [2, 3]: < 0.5 nM

Structure (SMILES): CSc1cc(C)[nH]c(=O)c1CNC(=O)c1c(C)n([C@H](C)[C@H]2CCN(C3CC3)CC2(F)F)c2ncccc12 (single isomer, unassigned) [70 (isomer 1)]
- EC50 ([1]; Homo sapiens, HeLa, 72 h): < 10 nM
- IC50 [2, 3]: < 0.5 nM

Structure (SMILES): CSc1cc(C)[nH]c(=O)c1CNC(=O)c1c(C)n([C@H](C)[C@@H]2CCN(C3CC3)CC2(F)F)c2ncccc12 (single isomer, unassigned) [70 (isomer 2)]
- EC50 ([1]; Homo sapiens, HeLa, 72 h): > 100 nM
- IC50 [2, 3]: 0.5 to 5 nM

Structure (SMILES): CSc1cc(C)[nH]c(=O)c1CNC(=O)c1c(C)n([C@H](C)C2CCC(N3CCOCC3)CC2)c2ccccc12 (single isomer, unassigned) [75 (isomer 1)]
- EC50 ([1]; Homo sapiens, HeLa, 72 h): 10 to 100 nM
- IC50 [2, 3]: < 0.5 nM

Structure (SMILES): CSc1cc(C)[nH]c(=O)c1CNC(=O)c1c(C)n([C@H](C)C2CCC(N3CCOCC3)CC2)c2ccccc12 (single isomer, unassigned) [75 (isomer 2)]
- EC50 [1]: 10 to 100 nM
- IC50 [2, 4]: < 0.5 nM

Structure (SMILES): COC1CN(C2CCC([C@@H](C)n3c(C)c(C(=O)NCc4c(SC)cc(C)[nH]c4=O)c4cccnc43)CC2)C1 (single isomer, unassigned) [76 (isomer 1)]
- EC50 [1]: < 10 nM
- IC50 [2, 3]: < 0.5 nM

Structure (SMILES): COC1CN(C2CCC([C@@H](C)n3c(C)c(C(=O)NCc4c(SC)cc(C)[nH]c4=O)c4cccnc43)CC2)C1 (single isomer, unassigned) [76 (isomer 2)]
- EC50 [1]: > 100 nM
- IC50 [2, 3]: 0.5 to 5 nM

Structure (SMILES): CSc1cc(C)[nH]c(=O)c1CNC(=O)c1c(C)n([C@H](C)C2OCC(N3CC(C)(C)C3)CO2)c2ccccc12 (single isomer, unassigned) [78 (isomer 1)]
- EC50 [1]: 10 to 100 nM
- IC50 [2, 3]: < 0.5 nM

Structure (SMILES): CSc1cc(C)[nH]c(=O)c1CNC(=O)c1c(C)n([C@H](C)C2OCC(N3CC(C)(C)C3)CO2)c2ccccc12 (single isomer, unassigned) [78 (isomer 2)]
- EC50 [1]: > 100 nM
- IC50 [2, 3]: > 5 nM

Structure (SMILES): CSc1cc(C)[nH]c(=O)c1CNC(=O)c1c(C)n([C@H](C)C2CCC(N3CC[C@@H](F)C3)CC2)c2ccccc12 (single isomer, unassigned) [79 (isomer 1)]
- EC50 ([1]; Homo sapiens, HeLa, 72 h): < 10 nM
- IC50 [2, 3]: < 0.5 nM

Structure (SMILES): CSc1cc(C)[nH]c(=O)c1CNC(=O)c1c(C)n([C@H](C)C2CCC(N3CC[C@@H](F)C3)CC2)c2ccccc12 (single isomer, unassigned) [79 (isomer 2)]
- EC50 [1]: 10 to 100 nM
- IC50 [2, 4]: < 0.5 nM

Structure (SMILES): CSc1cc(C)[nH]c(=O)c1CNC(=O)c1c(C)n([C@H](C)C2CCC(N3CC(F)C3)CC2)c2ncc(F)cc12 (single isomer, unassigned) [84 (isomer 1)]
- EC50 ([1]; Homo sapiens, HeLa, 72 h): < 10 nM
- IC50 [2, 3]: < 0.5 nM

Structure (SMILES): CSc1cc(C)[nH]c(=O)c1CNC(=O)c1c(C)n([C@H](C)C2CCC(N3CC(F)C3)CC2)c2ncc(F)cc12 (single isomer, unassigned) [84 (isomer 2)]
- EC50 [1]: 10 to 100 nM
- IC50 [2, 4]: < 0.5 nM

Structure (SMILES): CSc1cc(C)[nH]c(=O)c1CNC(=O)c1c(C)n([C@H](C)C2OCC(N3CC(F)(F)C3)CO2)c2ccccc12 (single isomer, unassigned) [85 (isomer 1)]
- EC50 [1]: 10 to 100 nM
- IC50 [2, 3]: < 0.5 nM

Structure (SMILES): CSc1cc(C)[nH]c(=O)c1CNC(=O)c1c(C)n([C@H](C)C2OCC(N3CC(F)(F)C3)CO2)c2ccccc12 (single isomer, unassigned) [85 (isomer 2)]
- EC50 [1]: > 100 nM
- IC50 [2, 3]: 0.5 to 5 nM

Structure (SMILES): COC1(C)CN(C2CCC([C@@H](C)n3c(C)c(C(=O)NCc4c(SC)cc(C)[nH]c4=O)c4ccccc43)CC2)C1 (single isomer, unassigned) [90 (isomer 1)]
- EC50 [1]: 10 to 100 nM
- IC50 [2, 5]: < 0.5 nM

Structure (SMILES): COC1(C)CN(C2CCC([C@@H](C)n3c(C)c(C(=O)NCc4c(SC)cc(C)[nH]c4=O)c4ccccc43)CC2)C1 (single isomer, unassigned) [90 (isomer 2)]
- EC50 [1]: > 100 nM
- IC50 [2, 5]: < 0.5 nM
